# How the values were obtained:
# Assay type in all cases: cell-based, human
# hPSC-derived DA neurons [1] = test: Microelectrode array (MEA) recordings of GS-treated neurons; conditions: day 95 of differentiation, 2.5 μM guggulsterone
# Method: Extracellular voltage recordings from cultured hPSC-derived DA neurons were made on day 95 of differentiation in NB medium [NeuroBasal medium, 1× GlutaMAX, 1× N2/B27 Supplement (Invitrogen)] supplemented with 2.5 μM guggulsterone at 37° C. using a Muse microelectrode array (MEA) system (Axion Biosystems). The surface of the MEA dishes contained an 8×8 grid (64 electrodes total) of 30 μm diameter round extracellular electrodes composed of nanoporous platinum, with 200 μm inter-polar spacing.
# MEA dishes were sterilized by rinsing 3 times in sterile deionized water, once in 70% ethanol and once in 100% ethanol. Dishes were then capped and inverted in a covered petri dish, and baked at 50° C. for 4-5 hr. A polyethyleneimine (PEI) base coating was deposited by adding […] of filtered (0.22 μm filter) 0.1% PEI in sodium borate buffer (15 mM; pH 8.4) to each dish and incubating at room temperature for 1 hr. Immediately following aspiration of the PEI solution, dishes were washed 4× with 1 ml deionized water, and air-dried overnight in a tissue culture hood. […]
# Voltage data were sampled simultaneously on all electrodes at 12.5 kHz with a hardware filter bandwidth of 200-5000 Hz, and saved to computer with AxIS software (Axion Biosystems). […] For spike raster plots and inter-spike interval histograms, time-stamps of detected spikes were exported to Neuroexplorer (NEX Technologies). […]
# hPSC-NSCs = test: Percentage of TH positive cells produced by chemical treatment; conditions: chemical treatment 2.5 μM for two weeks
# Method: The method specifically involved treating both hESC-H9-NSCs (Invitrogen) and hPSC-NSCs with Purmorphamine (2 μM) and FGF8 (100 ng/mL) in NB medium [NeuroBasal medium, 1× GlutaMAX, 1× N2/B27 Supplement (Invitrogen)] for 7 days. After 7 days of Purmorphamine and FGF8 treatment, the NSCs were dissociated with Accutase (Sigma) and plated 20,000 cells/mL into Matrigel coated 96 well plates and treated with small molecule library (Torcris 1120 Biologically Active Compounds) at 2.5 μM final concentration for two weeks (FIG. 6A). Two weeks after treatment with small molecules, all wells were visually observed and scored based on neurite density and dopamine release. For measuring neurite density, cells were fixed with 4% paraformaldehyde and phase contrast images were acquired using Cellavista Cell Imaging System (Roche Applied Science) from randomly selected fields. Neurite density was measured using the Cellavista density software image processing program. Each experimental condition was done in duplicate wells, and at least three independent experiments were conducted to acquire the final results.
# Conditioned medium from the top neurite inducers (Table 1) (wells containing the highest density of neurites compare to control 0.1% DMSO treated) were collected and analyzed using a dopamine ELISA assay (Cosmo Bio). Conditioned medium was collected from samples containing 50,000 cells per well and centrifuged at 3000 RPM to remove cell debris. Supernatant was then collected and analyzed for quantitative determination of dopamine using a commercial dopamine ELISA assay kit (CusaCosmo Bio). Data analysis was performed using the microtiter plate reader (BIO-TEK Synergy 2). The results presented are from three independent experiments (n=3) and represented as mean±standard error of mean (s.e.m.) and statistical analysis was performed using the two-tailed Student's t-test with a confidence level of 95% (α=0.05) with statistical significance of P<0.05. Additionally, total RNA from each well were collected and analyze by RT-PCR for expression of TuJ1, MAP2, TH, GRK2, EN1, DAT, AADC, PAX2, NURR1, PITX3 and LMX1B from hPSC-NSCs (Table 2). […] Analysis of the ELISA data indicated the top small molecule neurite inducers produced higher levels of dopamine than control non-treated cells (1.5 ng/mL). […] The percentages of TH positive cells produced by chemical treatment with Kenpaullone (33%), Guggulsterone (35%), Kynurenic Acid (19%), Immedthridine Dihydrobromide (21%), and Dimaprit Dihydrochloride (18%) were higher than 15% of TH positive cells obtained from hPSC-NSCs differentiated for ≥1 month using a standard dopaminergic differentiation medium (BDNF 20 ng/mL, GDNF 20 ng/mL, cAMP 200 μM, Abscorbic Acid 200 μM, TGFβ3 2 ng/mL and DAPT).
# hPSC-derived DA neurons [2] = test: Whole cell patch clamp electrophysiology of GS-treated neurons; conditions: current clamp, after 90 days of GS treatment
# Method: Whole cell patch clamp electrophysiology methods. For electrophysiological recordings, the cells were transferred to a recording chamber mounted on an inverted Olympus microscope. During the recordings the temperature was maintained at 31-32° C., and the cells perfused at constant flow of 1 ml/min. with 150 mM NaCl, 4 mM KCl, 1.8 mM CaCl2, 1 mM MgCl2, 10 mM HEPES, 10 mM Glucose at pH 7.30 and 315 mOsm. Whole-cell recordings were obtained using borosilicate electrodes with tip resistance of 2-3 MΩ, filled with 130 mM K-Gluconate, 5 mM NaCl, 5 mM KCl, 10 mM HEPES, 20 mM Sucrose, 0.3 mM EGTA, 3 mM MgATP at pH 7.30 and 290 mOsm. Data were acquired using an HEKA EPC-10 digitizer/amplifier. Once whole-cell access was achieved the resting membrane potential was immediately recorded; the cells were then allowed to equilibrate for 3-5 min. From a resting membrane potential of −70 mV, the cells were then depolarized in current-clamp mode with 200 ms current injections, delivered at 0.2 Hz., and with increasing amplitude from 50 pA to up to 1000 pA to induce action potentials. The presence of inward or outward currents was determined by applying a voltage ramp. Cells with unstable recording configuration or for which the series resistance became larger than 15MΩ were excluded from the study. Twenty different cells were recorded and action potentials were obtained from 7 patch-clamped cells.
compound,measurement,setting,value
C/C=C1\C(=O)C[C@H]2[C@@H]3CCC4=CC(=O)CC[C@]4(C)[C@H]3CC[C@]12C [Guggulsterone],fraction of the 64 total MEA electrodes showing moderate activity (>5 spikes/min),hPSC-derived DA neurons [1],Approximately one third
same,percentage of TH positive cells,hPSC-NSCs,35%
same,patch-clamped cells in which action potentials were found,hPSC-derived DA neurons [2],7 out of 20
